Consider 6 compounds from patent US6133233A, “Peptide modulation of reperfusion injury” (Kansas State University Research Foundation, priority 1998, dated 2000).

The subject of test [1] is leukocyte adherence and extravasation. Particulars: cited from earlier work.
The next test deals with intact human neutrophils. In words: Superoxide anion generation in intact human neutrophils. It counts as cell-based. As to the method: (§1) In these experiments, superoxide anion production by neutrophils was determined by the superoxide dismutase-inhibitable reduction of ferricytochrome c.
(§2) Four samples were prepared for each animal: (1) neutrophils (1×10^6 cells) in Hanks' balanced salt solution (HBSS; without phenol red) mixed with 100 μl (80 μM) of ferricytochrome c, 10 μl (0.1 μg) phorbol myristate acetate (PMA), and 100 μl (300 U) of superoxide dismutase (SOD); (2) cells treated with ferricytochrome c only; (3) cells treated with ferricytochrome c and PMA; and (4) cells treated with ferricytochrome c and SOD. The mixtures were incubated at 39° C. for 20 min. and then centrifuged at 4° C. (350×g) for 5 min. Cell-free supernatant (200 μl) was transferred to flat-bottom 96-well plates, and OD was read at 550 nm using HBSS as the blank. Production of superoxide anion was calculated using the following formula: OD of [(3+4)-(1+2)]×190.5=nm superoxide/1 ×10^6 cells/20 min.

Test [2] deals with neutrophil oxidase activity. Nature of the test: Superoxide anion production in whole neutrophils (SOD-inhibitable ferricytochrome c reduction, PMA). It counts as cell-based. The following applies: concentrations 5-10 μM. As to the method:
as §1, §2

In the next test the test system is neutrophil chemotaxis. Nature of the test: Neutrophil microchemotaxis assay. It counts as cell-based. The following applies: rat neutrophils; PR-39 10 μM. The text has this: A microchemotaxis assay was used to examine the effect of PR-39 (SEQ ID No. 1) and another basic, PXXP-containing antimicrobial peptide, Bac5 (SEQ ID No. 7), on neutrophil chemotaxis alone and in combination. Whole blood was obtained from 250-350 g Sprague-Dawley rats by terminal cardiac puncture into acid citrate dextrose solution. Neutrophils were isolated by dextran sedimentation, followed by density-gradient centrifugation and hypotonic lysis to remove contaminating erythrocytes. Micropore filters (5 μM-pore polycarbonate membrane) were used to separate the lower and upper chambers of the microchemotaxis chamber. Attractants to be tested were diluted in RPMI medium and added (35 μl) to the lower wells of the chamber; 50 μl of the cell suspension ([…]) was added to the upper chamber. Chambers were placed in a humidified atmosphere of 5% CO2 in air at 37° C. for 40 min. Cells on the underside of the filters were fixed, stained, and counted using high-power brightfield microscopy. For each sample, four test wells containing chemoattractant were used. The total number of neutrophils in five fields was counted for each well. All results are expressed as a chemotaxis index defined as […].

Test [3] deals with bovine pulmonary artery endothelial (BPAE) cells. In words: Superoxide production in high K+ treated BPAE cells (dichlorodihydrofluorescein). It counts as cell-based. Particulars: 10 μM, 30 min. As to the method:
PR-39 (SEQ ID No. 1) was also tested in a cell other than neutrophils, namely bovine pulmonary artery endothelial (BPAE) cells. In these cells, membrane depolarization induced by high K^+ treatment results in the production of superoxide anion by an endothelial NADPH oxidase enzyme that may be similar to the oxidase found in neutrophils. In these experiments, cultured BPAE cells were loaded with an oxidation-sensitive dye, dichlorodihydrofluorescein, then treated with high K^+, plus or minus PR-39 (SEQ ID No. 1) or PR-26 (SEQ ID No. 2), for 30 min. Cells were then scraped, pelleted, washed, and sonicated. Fluorescence of the supernatant was then measured to assess superoxide production.

The next test relates to venular protein leakage. In words: Albumin leakage through mesenteric venules (vascular integrity) after ischemia-reperfusion. It counts as in vivo, rat. Particulars: rats, PR-39 pretreatment. As to the method: An assessment of vascular integrity was made by quantification of albumin leakage through mesenteric venules. Three groups of Sprague-Dawley rats (6 rats/group and respectively labeled control, I/R and I/R+PR-39) were obtained. […] The control group was subjected to a similar surgical preparation, but without occlusion of the mesenteric artery or PR-39 (SEQ ID No. 1) administration. Fifty mg/kg fluorescein isothiocyanate-labeled bovine albumin was administered IV to each of the rats of each group, 15 min. prior to release of occlusion of the rats of the I/R and I/R+PR-39 (SEQ ID No. 1) groups. Fluorescence intensities within three segments of the venule under study (Iv) and in three adjacent areas of interstitium (Ii) were detected using a SIT camera (Model C-2400-08; Hamamatsu Photonics). Measurements were made at the basal, 20-30 min., and 50-60 min. time points using a computer-assisted digital imaging processor (NIH Image 1.35 on a Macintosh computer). An index of albumin leakage was expressed as the ratio of Ii to Iv at each time.

Test [4] concerns leukocyte emigration through venular endothelium. Nature of the test: Leukocyte emigration through venular endothelium after ischemia-reperfusion. The following applies: rats, pretreatment with about 5 μM. It counts as in vivo, rat. As to the method: (§3) In this example, the efficiency of PR-39 (SEQ ID NO: 1) was tested in an in vivo model of reperfusion. Measurements of reactive oxygen release, neutrophil adherence to postcapillary venules and neutrophil emigration through venular endothelium, and vascular leakage were made in the presence and absence of PR-39 (SEQ ID No. 1).
(§4) In this example, male Sprague-Dawley rats weighing 220-250 g each were used. The rats were anesthetized by intraperitoneal injection of pentobarbital (30-40 mg/kg rat body weight) and the jugular vein of each rat was cannulated for reagent injection. […] The images were captured with a charge-coupled device camera (Model C2400-60, Hamamatsu Photonics) which was mounted on the microscope, projected onto a television monitor (Model PVM-2030, Sony) and recorded using a videocassette recorder (Model HS-U65, Mitsubishi). […]
(§5) Single, unbranched venules with diameters between 25-35 μm and lengths longer than 150 μm (both measured with a video caliper, Microcirculation Research Institute, Texas A&M University) were selected for the studies. […]
(§6) The number of adherent and transmigrating leukocytes was determined off-line using videotaped images. […] Adherent leukocytes were expressed as the number per 100 μm length of venule. The number of emigrating leukocytes were also determined off-line and were expressed as the number per microscopic field.

In test [5] the test system is leukocyte adherence to mesenteric venular endothelium. In words: Leukocyte adherence to mesenteric venular endothelium after ischemia-reperfusion. It counts as in vivo, rat. Particulars: rats, pretreatment with about 5 μM. As to the method: as §3, §4, §5, §6
A further test concerns reactive oxygen species. Nature of the test: Reactive oxygen (oxidant) production after mesenteric ischemia-reperfusion, dihydrorhodamine 123 intravital fluorescence. It counts as in vivo, rat. The following applies: rats. As to the method:
as §3
as §4, with “injection. The carotid artery of each rat was also cannulated for measurements of mean arterial blood pressure using a pressure transducer (Model P23a, Statham) and physiological recorder (Grass Instruments).” for “injection.”
as §5
In more detail, generation of reactive oxygen levels were measured by the dihydrorhodamine 123 dye. […]

The mark [6] stands for this setting: 2 μM adenosine, cat mesenteric model.

For the compound `Nc1ncnc2c1ncn2[C@@H]1O[C@H](CO)[C@@H](O)[C@H]1O` [adenosine], in test [1] (setting [6]), the “Reduction of reperfusion injury-induced adhesion of neutrophils” value is 65% and the “Reduction of reperfusion injury-induced extravasation of neutrophils” value is 32%. Besides, the “Reduction of oxidant release” value in test [1] (adenosine treatment, literature) is 20%.
Turning to “C7: non-naturally occurring, cationic, PXXP-containing peptide (RRGPRHPQTRLPRPLPDP)”, the “Inhibition of superoxide anion generation in intact human neutrophils” value with intact human neutrophils is “inhibition of superoxide anion generation”.
In the case of “Bac5: basic, PXXP-containing antimicrobial peptide (RFRPPIRRPPIRPPFYPPFRPPIRPPIFPPIRPPFRPPLGPFP)”, the “Inhibition of neutrophil oxidase activity (superoxide anion generation in intact neutrophils)” value in [2] is reported as “inhibition of superoxide anion generation”.
Regarding “platelet activating factor [PAF, reference compound]”, the “Neutrophil chemotaxis, examined alone” value in the test with neutrophil chemotaxis is reported as “chemotactic for neutrophils”.
Turning to “Bac7: cationic, proline-rich, PXXP-containing peptide (RRIRPRPPRLPRPRPRPLYC)”, the “Inhibition of neutrophil oxidase activity (superoxide anion generation in intact neutrophils)” value in [2] is listed as “inhibition of superoxide anion generation”.
Turning to “PR-39: proline/arginine-rich peptide of 39 residues (29/39 proline and arginine), most preferred peptide (RRRPRPPYLPRPRPPPFFPPRLPPRIPPGFPPRFPPRFP)”, the “Oxidase activity (superoxide production) in pulmonary endothelium” value in test [3] was “decrease oxidase activity”. Further, the “Vascular integrity (albumin leakage index Ii/Iv)” value in the test with venular protein leakage is reported as “prevented loss of vascular integrity”. For the same compound, the “Inhibition of neutrophil oxidase activity (superoxide anion generation in intact neutrophils)” value in test [2] is “inhibition of superoxide anion generation”. Moreover, the Basal neutrophil emigration entry in test [4] (basal) is on record as “appeared to be diminished”. In addition, the Transvascular neutrophil emigration entry in test [4] (both post-release time points) is “no migrating neutrophils observed”. Besides, the “Neutrophil adhesion to venular endothelium” value in test [5] was “no apparent endothelium neutrophil interaction in excess of basal levels”. Moreover, the “Oxidant release (reactive oxygen production)” value in the test with reactive oxygen species (PR-39 pretreatment, comparison with adenosine) is reported as “complete prevention of oxidant release”. In the test on reactive oxygen species (about 5 μM PR-39 pre-ischemia, 20 min ischemia, 30 minutes after resumption of mesenteric venular circulation), the Oxidant production entry is listed as “significantly inhibited”. Further, the “Neutrophil chemotaxis, examined alone” value in the test with neutrophil chemotaxis is listed as “chemotactic for neutrophils”.
